Assay results reported in US7638494B2, “G-type peptides to ameliorate atherosclerosis” (The Regents of the University of California, priority 2002, dated 2009).
Read-outs that look alike come from different tables or passages of the source.

Columns and labels:
[1] = test system: Human aortic endothelial cells; assay: Prevention of LDL-induced monocyte chemotactic activity by pre-treatment (pre-incubation) of artery wall cells; format: cell-based; conditions: pre-incubation 6 hrs, washed, then control human LDL 200 μg protein/ml overnight; relative to D-4F (FIG. 2)
Method: FIG. 2 illustrates a comparison of the effect of D-4F with the effect of D-J336 on the prevention of LDL induced monocyte chemotactic activity in a pre-incubation. Human aortic endothelial cells were pre-incubated with D-J336 or D-4F at 4, 2, and 1 μg/ml for DJ336 or 100, 50, 25, and 12.5 μg/ml for D-4F for 6 hrs. The cultures were then washed and were incubated with medium alone (no addition), or with control human LDL (200 μg protein/ml), or with control human LDL+control human HDL (350 μg HDL protein/ml) as assay controls. The wells that were pre-treated with peptides received the control human LDL at 200 μg protein/ml. Following overnight incubation, the supernatants were assayed for monocyte chemotactic activity.

LDL receptor null mice = assay: HDL protective capacity in LDL receptor null mice given peptide in drinking water; format: in vivo
Method: D-4F designated as F, or the apoJ peptide made from D amino acids (D-J336, designated as J) was added to the drinking water of LDL receptor null mice (4 per group) at 0.25 or 0.5 mg per ml of drinking water. After 24- or 48-hrs blood was collected from the mice and their HDL was isolated and tested for its ability to protect against LDL-induced monocyte chemotactic activity. Assay controls included culture wells that received no lipoproteins (no addition), or control human LDL alone (designated as LDL, 200 μg cholesterol/ml), or control LDL+control human HDL (designated as +HDL, 350 μg HDL cholesterol). For testing the mouse HDL, the control LDL was added together with mouse HDL (+F HDL or +J HDL) to artery wall cell cultures. The mouse HDL was added at 100 μg cholesterol/ml respectively.

apo E null mice [2] = assay: Protection against LDL-induced monocyte chemotactic activity by HDL from apo E null mice given oral peptides; format: in vivo; conditions: for potency compared with D-4F in enhancing HDL protective capacity: apo E null mice, added to the drinking water (FIG. 4)
Method: FIG. 4 illustrates the effect of oral apoA-1 peptide mimetic and apoJ peptide on HDL protective capacity. […] After 24 hrs blood was collected, plasma fractionated by FPLC and fractions containing LDL (designated as mLDL for murine LDL) and fractions containing HDL (designated as mHDL) were separately pooled and HDL protective capacity against LDL oxidation as determined by LDL-induced monocyte chemotactic activity was determined. For the assay controls the culture wells received no lipoproteins (no additions), mLDL alone (at 200 μg cholesterol/ml), or mLDL+standard normal human HDL (designated as Cont. h HDL, at 350 μg HDL cholesterol/ml).
For testing the murine HDL, mLDL together with murine HDL (+F mHDL or +J mHDL) were added to artery wall cell cultures. […] The murine HDL was used at 100 μg cholesterol/ml.

PON1 = conditions: apo E null mice, added to the drinking water, 24 hrs, plasma (FIG. 7)
Method: After 24 hrs blood was collected and plasma was assayed for PON1 activity.

apo E null mice [3] = assay: LDL susceptibility to oxidation: ability of LDL from apoE null mice given oral peptides to induce monocyte chemotactic activity; format: in vivo; conditions: added to the drinking water, 24 hrs (FIG. 5)
Method: FIG. 5 illustrates the effect of oral apo A-1 peptide mimetic and apoJ peptide on LDL susceptibility to oxidation. […] After 24 hrs blood was collected from the mice shown in FIG. 4, plasma fractionated by FPLC and fractions containing LDL (designated as mLDL for murine LDL) were pooled and LDL susceptibility to oxidation as determined by induction of monocyte chemotactic activity was determined.
Murine LDL, mLDL, from mice that received the D-4F mLDL) or those that received the apoJ peptide (J mLDL) were added to artery wall cell cultures.

apo E null mice [4] = conditions: added to the drinking water, 24 hrs, human artery wall co-culture (FIG. 6)
Method: FIG. 6 illustrates the effect of oral apoA-1 peptide mimetic and apoJ peptide on HDL protective capacity. […] After 24 hrs blood was collected, plasma fractionated by FPLC and fractions containing HDL (designated as mHDL) were pooled and HDL protective capacity against PAPC oxidation as determined by the induction of monocyte chemotactic activity was determined. For the assay controls the culture wells received no lipoproteins (no additions), the phospholipid PAPC at 20 μg /ml+HPODE, at 1.0 μg/ml, or PAPC+HPODE plus standard normal human HDL (at 350 μg HDL cholesterol/ml and designated as +Cont. h HDL).
For testing the murine HDL, PAPC+HPODE together with murine HDL (+F mHDL or +J mHDL) were added to artery wall cell cultures. […] The murine HDL was used at 100 μg cholesterol/ml.

Ac-LLEQLNEQFNWVSRLANLTQGE-NH2 [D-J336]
times more potent than D-4F in preventing LDL oxidation by artery wall cells [1]: 10-25 times
activity of mouse HDL in preventing control LDL from inducing monocyte chemotactic activity, compared with control human HDL (LDL receptor null mice; LDL receptor null mice, 0.25 or 0.5 mg per ml drinking water, 24 or 48 hrs, mouse HDL at 100 μg/ml): as active as 350 μg/ml of control human HDL
effectiveness compared with D4F in preventing LDL-induced monocyte chemotactic activity (LDL receptor null mice; given orally to LDL receptor null mice (FIG. 3)): essentially as effective as D4F
potency compared with D-4F in enhancing HDL protective capacity (apo E null mice [2]): as potent as D4F
potency compared with D-4F in enhancing HDL protective capacity (apo E null mice [2]; listed as D-J peptide): as potent as D-4F
activity of murine HDL compared with normal human HDL against LDL-induced monocyte chemotactic activity (apo E null mice [2]; apoE null mice, peptide in drinking water, 24 hrs, murine HDL at 100 μg/ml): as active as 350 μg/ml of normal human HDL
potency compared with D-4F in increasing paraoxonase activity (PON1): at least as potent as D-4F
potency compared with D-4F in increasing paraoxonase activity (PON1; listed as DJ336): at least as potent as D4F
potency compared with D-4F in rendering LDL resistant to oxidation by human artery wall cells (induction of monocyte chemotactic activity) (apo E null mice [3]): lightly more potent than D-4F
potency compared with D-4F in rendering LDL resistant to oxidation by human artery wall cells (induction of monocyte chemotactic activity) (apo E null mice [3]; listed as DJ336): slightly more potent than D4F
potency compared with D-4F in causing HDL to inhibit oxidation of PAPC by HPODE (generation of monocyte chemotactic activity) (apo E null mice [4]): as potent as D-4F
potency compared with D-4F in causing HDL to inhibit oxidation of PAPC by HPODE (generation of monocyte chemotactic activity) (apo E null mice [4]; listed as DJ336): as potent as D4F
